Measured values reported in a melting point compilation (Tetko et al.; mined from patent text by program, amines drawn as free bases though some values may be those of a salt).

| melting point | SMILES |
| --- | --- |
| 89 °C | CCOc1cc(-c2cc(C(F)(F)F)nc(Cl)n2)ccc1C(F)(F)F |
| 272 °C | N#Cc1c(Cl)c2cc(F)cnc2[nH]c1=O |
| 139 to 141 °C | COc1cc(C=CC(=O)C(Cc2ccccc2)C(=O)C=Cc2ccc(O)c(OC)c2)ccc1O (stereo not drawn) |
| 86 to 87 °C | CCOC(=O)C(=Cc1cc(OC)c(OC)cc1OC)C(=O)OCC |
| 90 to 91 °C | BrCC[Si](CCBr)(CCBr)CCBr |
| 140 to 142 °C | O=C(O)C1Cc2ccccc2N1C(=O)CCS (stereo not drawn) |
| 121 to 122 °C | CCCN1C(=O)C2(CC)CC(c3ccc([N+](=O)[O-])cc3)(C2)C1=O |
| 142 to 146 °C | Nc1[nH]c(=O)c(C(=O)NCC2CCN(CC3CCCCC3)CC2)cc1Cl |
| 141 to 143 °C | CC(C)(C)NC(=O)c1ccc(C(O)CCCc2cn([Si](C)(C)C)cn2)cc1 (stereo not drawn) |
| 114 to 115 °C | O=C1CC[C@@H]2CCc3ccccc3[C@@H]2CN1Cc1ccccc1 (relative stereo) |
| 153 to 156 °C | COc1ccc(-c2sc3c(c2C)c(=O)c(CO)cn3Cc2ccccc2OC)cc1 |
| 207 to 210 °C | N=C(N)NCCCCOc1cccc2c1NC(=O)C(CC(=O)O)C2 (stereo not drawn) |
| 128 to 129 °C | CCCCc1nc2c(N)nc(C)c(C)c2n1CCCCNC(=O)c1ccccc1 |
| 214 to 217 °C | CS(=O)(=O)Nc1ccc2c(c1)C(=O)C(C1CCN(CCc3ccc4nonc4c3)CC1)C2 (stereo not drawn) |
| 137 to 138 °C | CCc1ccc(OCC(O)CN2CCC3(CC2)CSC2=C(O3)c3ccccc3C(=O)C2=O)cc1 (stereo not drawn) |
| 111 to 113 °C | Clc1ccc2nncc(Cl)c2c1 |
| 195 to 196 °C | COc1ccc2c(c1)CCC2n1cc[nH]c1=S (stereo not drawn) |
| 190 to 191 °C | O=C(NC1CCN(CCCc2ccccc2)CC1)C1=Cc2cnc3cccc(n23)S1 |
| 82 to 84 °C | COc1ccc(C(=O)COC(C)=O)cc1OC |
| 175 to 177 °C | COc1cc(OC)nc(NC(=O)NS(=O)(=O)c2cccc3cccnc23)n1 |
| 146 to 148 °C | COC(=O)CCc1ccc(C(=O)O)cc1 |
| 112 °C | CNC(=O)C1CN(CCCC(c2ccc(F)cc2)c2ccc(F)cc2)CCN1CC(=O)Nc1c(C)cc(N)cc1C (stereo not drawn) |
| 165 to 167 °C | NS(=O)(=O)c1ccc(-c2c(CC(O)c3ccc(Cl)cc3)noc2-c2ccccc2)cc1 (stereo not drawn) |
| 144 to 148 °C | CN(C)CCN(C)C(=O)c1ccc2cc(-c3csc(N(C)S(=O)(=O)c4ccccc4)n3)c(=O)[nH]c2c1 |
| 135 to 137 °C | O=C(O)C(=O)c1ccc2c(c1)Cc1ccccc1-2 |

| melting point | SMILES |
| --- | --- |
| 166 to 167 °C | Cc1oc(C(C)(C)C)nc1COc1ccc(CC(OC(C)C)C(=O)O)c2sccc12 (stereo not drawn) |
| 189 to 191 °C | CC1(C)CC(OC(=O)N=NC(=O)OC2CC(C)(C)N(OC3CCCCC3)C(C)(C)C2)CC(C)(C)N1OC1CCCCC1 |
| 218 to 220 °C | O=C(CCCCCc1ccc(Cl)cc1)Nc1ccc(C(=O)O)cc1 |
| 146 to 148 °C | CCC(CC)C(NS(=O)(=O)c1ccc(Cl)s1)c1ccnn1S(=O)(=O)c1ccc(C)cc1 (stereo not drawn) |
| 109 to 111 °C | COC(=S)c1ccc(C)c(C2=NOCC2)c1C |
| 230 °C | CC(=O)Nc1ccc(N2N=C(C)CC2=O)cc1 |
| 104 °C | COc1cccc(C(=O)c2ccc(=O)n(Cc3ccc(Cl)cc3)c2)c1 |
| 177 to 178 °C | COc1ccc2c(c1)c(C(C)C(=O)O)cc(=O)n2-c1ccc(Cl)cc1 (stereo not drawn) |
| 72 to 74 °C | CCCCC1OC(=O)c2cc(NC(C)C)ccc21 (stereo not drawn) |
| 107 to 108 °C | Cc1nn(C)c(=O)n1-c1ccccc1COc1ccn(-c2ccc(Cl)cc2)n1 |
| 180 to 182 °C | CC(=O)NCCC(=O)NCCNC(=O)OCc1ccccc1 |
| 198 to 200 °C | CC(C)Oc1nc(-c2ccc(=O)n(C(C)C)n2)c(-c2ccccc2)nc1N |
| 88 to 90 °C | CC(=O)OCCOc1cc(-n2c(=O)cc(C(F)(F)F)n(C)c2=O)c(F)cc1Cl |
| 113 to 116 °C | NS(=O)(=O)c1ccccc1OC(F)(F)C(F)Cl (stereo not drawn) |
| 219 to 220 °C | Cc1cn(C)c2c1N(C(=O)CN(C)C)c1ccccc1NC2=O |
| 290 to 292 °C | Cn1cc(C(=O)O)c(=O)c2sc(-c3ccccc3)cc21 |
| 79 to 80 °C | Nc1ccc(Cc2ccccc2)cn1 |
| 170 to 172 °C | CCN(CC)CCC1CCN(CCNC(=O)N2c3ccccc3C(=O)Nc3cccnc32)CC1 |
| 110 to 111 °C | CC(C)(C)c1cc(C(=O)OCc2ccc(C(=O)OCc3ccccc3)cc2)cc(C(C)(C)C)c1O |
| 29 to 32 °C | COC(=O)C(Cc1ccccc1)Oc1ccc2cc(CN(C)C(=O)c3oc4ccccc4c3CCc3ccccc3)ccc2c1Br (stereo not drawn) |
| 51 to 53 °C | CCOC(=O)c1ccc(I)cc1N |
| 156 to 158 °C | Oc1ccc(N2CCSCC2)cc1 |
| 68 to 72 °C | COC(=O)c1ccc(OCc2ccccc2)c(C(C)=O)c1 |
| 112 °C | CNC(=O)OCC(F)(F)Cn1nc(C)c(-c2ccc3c(c2)NC(=O)CO3)c1-c1ccc(F)cc1 |
| 191 to 192 °C | CCCCc1ncc(/C=C(\Cc2ccc(N)cc2)C(=O)O)n1Cc1ccccc1Cl |

| melting point | SMILES |
| --- | --- |
| 147 °C | Cc1ccc(-c2cc(N)nn2C(=O)OC(C)(C)C)cc1 |
| 95 °C | N#CCc1ccc(OCc2ccccc2)c2c1OCCO2 |
| 300 °C | COc1ccc(N2CCN(c3ccc(NC(=O)NN)cc3)CC2)cc1 |
| 188 to 189 °C | COc1cc(NS(=O)(=O)c2cccs2)c2[nH]c(C3=NCCS3)cc2c1 |
| 284 to 285 °C | O=C(O)/C=C/c1ccnc(-c2nc(=O)c3ccccc3s2)c1 |
| 80 to 82 °C | Cc1ccc(C(=O)c2ccn(C)c2C)cc1 |
| 183 to 185 °C | N#Cc1ccc(N2c3cc(Cl)ccc3C(=O)OC23CCNCC3)cc1 |
| 222 °C | CCCCCC1(C)OCc2c1cnc(C)c2O (stereo not drawn) |
| 117 to 119 °C | CCOC(=O)CONC(=S)Nc1cc(Cl)ccc1C |
| 138 to 139 °C | N#Cc1c[nH]cc1-c1ccccc1Cl |
| 244 to 248 °C | Cc1nc2cc(-c3ccccc3)nn2c2c1CCN2C(C)(C)C |
| 160 to 165 °C | N#Cc1ccc(C(=CC(=O)N2CCCCC2)n2ccnc2)cc1 |
| 85 to 86 °C | Cc1noc(CN2CCC[C@@H](OCc3cc(C(F)(F)F)cc(C(F)(F)F)c3)[C@H]2c2ccccc2)n1 (relative stereo) |
| 250 to 251 °C | O=C(c1ccccc1)c1cc(Cl)ccc1-n1c(CN2C(=O)c3ccccc3C2=O)nnc1CN1C(=O)c2ccccc2C1=O |
| 110 °C | CS(=O)(=O)Oc1ccccc1CC(=O)O |
| 222 to 224 °C | O=C(Nc1ccc2cc(CN3CCCC3)cnc2c1)N1CCC(c2ccccc2)CC1 |
| 154 to 155 °C | Cc1nnc(-c2ccc3ncn(-c4ccc(OC(F)F)cc4)c3c2)o1 |
| 212 °C | CCCCc1cn(-c2c(Cl)cccc2Cl)c(=O)n1Cc1ccc(-c2ccccc2-c2nnn[nH]2)nc1 |
| 257 to 258 °C | O=C1Nc2ccccc2C2=NC(CN3CCN(c4ccccc4)CC3)CN12 (stereo not drawn) |
| 82 to 83.5 °C | FS(F)(F)(F)(Cl)c1cccc(S(F)(F)(F)(F)Cl)c1 |
| 118 to 119 °C | CCCCCC(O)C=Cn1c(=O)n(CCN2CCN(c3ccccc3OC)CC2)c(=O)c2ccccc21 (stereo not drawn) |
| 114 to 134 °C | Cc1cc(C2=NOC(c3cc(Cl)cc(Cl)c3)(C(F)(F)F)O2)ccc1C(=O)O (stereo not drawn) |
| 127 to 128 °C | CCCCN1C(=O)c2cncnc2N(C(=O)CN2CCOCC2)c2ccccc21 |
| 69 to 70 °C | CCOC(=O)C1CCCn2c(cc3ccccc32)C1 (stereo not drawn) |
| 160 to 161 °C | Cc1cccc2c(C(CO)=C3SC(=O)NC3=O)cccc12 |

| melting point | SMILES |
| --- | --- |
| 129 to 131 °C | CCCN(CCC)CC(=O)Nc1ncc(Oc2cc(I)c(OC)cc2C(C)C)c(N)n1 |
| 48 to 53 °C | COc1ccccc1CN[C@H]1CCCN(CCCCCCc2ccccc2)[C@H]1c1ccccc1 (relative stereo) |
| 190 °C | CN(C(=O)CCCCO/N=C(\c1ccccc1)c1ccc2c(c1)CN1CC(=O)NC1=N2)C1CCCCC1 |
| 188 °C | CC1=C(C)C(=O)N(c2ccc(Cl)c(Cl)c2)C1=O |
| 95 to 96 °C | c1ccc2c(c1)CCN(c1ccncc1)C2 |
| 112 to 113 °C | COc1ccc([C@H](Sc2cc(Oc3ccc4c(c3)OCO4)ccc2N)[C@@H](O)C(=O)O)cc1 |
| 104 to 113 °C | CS(=O)(=O)Nc1cc([C@@H](O)CNC2CCN(c3ccc(NC(=O)c4ccc5c(c4)OCO5)cc3)CC2)ccc1O |
| 155 to 156 °C | Cc1oc(-c2ccccc2)nc1COc1ccc(Cn2cc(CCC(=O)O)c(-c3ccccn3)c2)cc1 |
| 262 °C | COc1ccc2[nH]c3c(C(=O)O)cccc3c2c1 |
| 184 to 185 °C | O=C(CN1CCC(c2noc3cc(F)ccc23)CC1)N1Cc2ccccc2C1 |
| 148 to 149 °C | O=[N+]([O-])c1ccc(-c2nn(-c3ccccc3)cc2CO)o1 |
| 196 to 199 °C | CCCCCCn1c(=O)n(C2OC(CO)C(O)C2O)c2nc(N)[nH]c(=O)c21 (stereo not drawn) |
| 242 to 248 °C | Cc1onc(-c2ccccc2)c1-c1ccc(S(=O)(=O)NCC(=O)O)cc1 |
| 112 to 114 °C | Cc1nc(CCn2cnc3c2c(=O)n(C)c(=O)n3C)no1 |
| 270 to 271 °C | CCOC(=O)c1c(CN2CCCC2=O)nc2sc3c(c2c1-c1ccc2c(c1)OCO2)CCN(C(=O)c1ccccc1)C3 |
| 103 to 110 °C | CC(CCc1ccc(O)cc1)NCC(O)c1cccc(Cl)c1 (stereo not drawn) |
| 160 to 161 °C | Cc1nc2nc(SCc3ccccc3)nn2cc1Cl |
| 313 °C | COc1cc(C(=O)c2ncc3ccc(C(=O)O)cn23)ccc1[N+](=O)[O-] |
| 100 to 102 °C | O=C(Cc1ccccc1)N[C@@H]1C(=O)N2C(C(=O)O)=C(OS(=O)(=O)C(F)(F)F)NC[C@H]12 (racemic) |
| 178 to 180 °C | CC(C)(C)C(=O)c1c[nH]c2ncc(-c3cccc(NC4CCCC4O)c3)nc12 (stereo not drawn) |
| 177 to 178 °C | Cc1nc2cc3c(cc2s1)C1(CO3)C(=O)N(Cc2ncc(Cl)n2C)c2ccccc21 (stereo not drawn) |
| 122 °C | O=S(=O)(Nc1cccc(C=C2c3ccccc3CCc3ccccc32)c1)c1ccccc1 |

| SMILES | melting point |
| --- | --- |
| COc1ccc(C=C(C)[N+](=O)[O-])c(OC)c1OC | 57 to 58 °C |
